Test results as given in patent US10111435B2, “Herbicidal compositions containing N-(1,3,4-oxadiazol-2-yl)-aryl carboxylic acid amides” (BAYER CROPSCIENCE AKTIENGESELLSCHAFT, priority 2013, dated 2018).

Columns and labels:
Assay type in all cases: in vivo
Galium aparine (GALAP) = test: greenhouse post-emergence herbicidal efficacy against GALAP
Description: (§1) All trials whose results are shown were conducted in a greenhouse by the methodology specified below. The effect of the inventive herbicidal compositions was examined on the following harmful plants 14 and 21 days after application:
(§2) Echinochloa crus-galli (ECHCG), Eleusine indica (ELEIN), Setaria viridis (SETVI), Amaranthus retroflexus (AMARE), Chenopodium album (CHEAL), Kochia scoparia (KCHSC), Solanum nigrum (SOLNI), Avena fatua (AVEFA), Bromus sterilis (BROST), Lolium multiflorum (LOLMU), Phalaris minor (PHAMI), Poa annua (POAAN), Galium aparine (GALAP), Matricaria inodora (MATIN) and Polygonum convolvulus (POLCO).
(§3) The harmful plant seeds were sown in pots (diameter 8 cm) with sandy loam soil and germinated under optimal conditions. The inventive herbicidal compositions or the active ingredients alone were applied post-emergence to the planted pots with a spray volume of 300 L/ha. The trial was conducted in a greenhouse under optimum growth conditions. The herbicidal effects were assessed visually by comparison of untreated and treated plants. The percentages mean: 0%=no effects, 100%=the plants die off completely).
(§4) The abbreviations mean: • a.i.=active ingredient • E^C=expected value according to Colby (E^C=A+B−A×B/100) • Diff: =difference (%) of measured value from expected value (%) (measured value minus expected value)
(§5) Assessment: • measured value E is greater than E^C:->synergism (+ diff.) • measured value E equals E^C:->additive effect • measured value E is smaller than E^C:->antagonism(− diff.)

Poa annua (POAAN) = test: greenhouse post-emergence herbicidal efficacy against POAAN
Description: as §1, §2, §3, §4, §5

Phalaris minor (PHAMI) = test: greenhouse post-emergence herbicidal efficacy against PHAMI
Description: as §1, §2, §3, §4, §5

[1] = system: Matricaria inodora (MATIN); test: greenhouse post-emergence herbicidal efficacy against MATIN
Description: as §1, §2, §3, §4, §5

Avena fatua (AVEFA) = test: greenhouse post-emergence herbicidal efficacy against AVEFA
Description: as §1, §2, §3, §4, §5

Bromus sterilis (BROST) = test: greenhouse post-emergence herbicidal efficacy against BROST
Description: as §1, §2, §3, §4, §5

[2] = system: Lolium multiflorum (LOLMU); test: greenhouse post-emergence herbicidal efficacy against LOLMU
Description: as §1, §2, §3, §4, §5

[3] = system: Polygonum convolvulus (POLCO); test: greenhouse post-emergence herbicidal efficacy against POLCO
Description: as §1, §2, §3, §4, §5

[4] = system: Chenopodium album (CHEAL); test: greenhouse post-emergence herbicidal efficacy against CHEAL; settings: 21 days after application, 2 g of a.i./ha
Description: as §1, §2
as §3, with “completely). The percentages are used to calculate interactions between individual treatments and combination treatments according to S. R. Colby, Weeds 15, pages 20 to 22 (1967).” for “completely).”
as §4, §5

Setaria viridis (SETVI) = test: greenhouse post-emergence herbicidal efficacy against SETVI; settings: 21 days after application
Description: as §1, §2
as §3, with “completely). The percentages are used to calculate interactions between individual treatments and combination treatments according to S. R. Colby, Weeds 15, pages 20 to 22 (1967).” for “completely).”
as §4, §5

Kochia scoparia (KCHSC) = test: greenhouse post-emergence herbicidal efficacy against KCHSC
Description: as §1, §2
as §3, with “completely). The percentages are used to calculate interactions between individual treatments and combination treatments according to S. R. Colby, Weeds 15, pages 20 to 22 (1967).” for “completely).”
as §4, §5

Eleusine indica (ELEIN) = test: greenhouse post-emergence herbicidal efficacy against ELEIN; settings: Eleusine indica, post-emergence; for pest or weed control at 0.5 g/ha: 0.5 g of a.i./ha; for pest or weed control at 2 g/ha: 2 g of a.i./ha
Description: as §1, §2
as §3, with “completely). The percentages are used to calculate interactions between individual treatments and combination treatments according to S. R. Colby, Weeds 15, pages 20 to 22 (1967).” for “completely).”
as §4, §5

[5] = system: Echinochloa crus-galli (ECHCG); test: greenhouse post-emergence herbicidal efficacy against ECHCG
Description: as §1, §2
as §3, with “completely). The percentages are used to calculate interactions between individual treatments and combination treatments according to S. R. Colby, Weeds 15, pages 20 to 22 (1967).” for “completely).”
as §4, §5

[6] = 14 days after application, 0.5 g of a.i./ha
[7] = 21 days after application, g of a.i./ha: A1-34 50, iodosulfuron-methyl-sodium 0.5
[8] = 21 days after application, g of a.i./ha: A1-34 200, iodosulfuron-methyl-sodium 2
[9] = 14 days after application, 2 g of a.i./ha
[10] = 21 days after application, g of a.i./ha: A1-34 50, iodosulfuron-methyl-sodium 2
[11] = 14 days after application, 2.5 g of a.i./ha
[12] = 14 days after application, 10 g of a.i./ha
[13] = 21 days after application, g of a.i./ha: A1-13 2.5, mesosulfuron-methyl 10
[14] = 21 days after application, g of a.i./ha: A1-13 2.5, mesosulfuron-methyl 2.5
[15] = 21 days after application, g of a.i./ha: A1-13 10, mesosulfuron-methyl 10
[16] = 14 days after application, 20 g of a.i./ha
[17] = 21 days after application, g of a.i./ha: A1-3 5, pinoxaden 20
[18] = 21 days after application, g of a.i./ha: A1-3 20, pinoxaden 5
[19] = 21 days after application, g of a.i./ha: A1-3 20, pinoxaden 20
[20] = 14 days after application, 5 g of a.i./ha
[21] = 21 days after application, 0.5 g of a.i./ha
[22] = 21 days after application, 2 g of a.i./ha
[23] = 336 h, 14 days after application
[24] = 504 h, 21 days after application

Molecule `COC(=O)c1ccc(I)cc1S(=O)(=O)[N-]C(=O)Nc1nc(C)nc(OC)n1.[Na+]` [iodosulfuron-methyl-sodium] has an Efficacy (Galium aparine (GALAP); [6]) of 30%, an Efficacy (Galium aparine (GALAP); [7]) of 0% and an Efficacy (Galium aparine (GALAP); [8]) of 25%. It also gave an Efficacy (Poa annua (POAAN); [6]) of 0%, an Efficacy (Poa annua (POAAN); [9]) of 20% and an Efficacy (Phalaris minor (PHAMI); [6]) of 10%. The Efficacy [1, 7] was 70%, the Efficacy (Avena fatua (AVEFA); [8]) was 5% and the Efficacy (Bromus sterilis (BROST); [9]) was 15%. The Efficacy (Bromus sterilis (BROST); [10]) was 0%, the Efficacy (Bromus sterilis (BROST); [8]) was 0% and the Efficacy [2, 6] was 0%. It also gave an Efficacy [2, 9] of 30%, an Efficacy [3, 6] of 15% and an Efficacy [3, 9] of 30%. For the same molecule, the Efficacy [3, 7] was 0% and the Efficacy [3, 10] was 0%.

Work on `COC(=O)c1ccc(CNS(C)(=O)=O)cc1S(=O)(=O)NC(=O)Nc1nc(OC)cc(OC)n1` [mesosulfuron-methyl] yielded an Efficacy (Galium aparine (GALAP); [11]) of 30%, an Efficacy (Galium aparine (GALAP); [12]) of 30% and an Efficacy (Poa annua (POAAN); [11]) of 15%. For the same molecule, the Efficacy (Poa annua (POAAN); [12]) was 40%, the Efficacy (Poa annua (POAAN); [13]) was 40% and the Efficacy (Phalaris minor (PHAMI); [11]) was 0%. The Efficacy (Phalaris minor (PHAMI); [12]) was 5%, the Efficacy (Phalaris minor (PHAMI); [14]) was 0% and the Efficacy (Phalaris minor (PHAMI); [13]) was 5%. For the same molecule, the Efficacy (Phalaris minor (PHAMI); [15]) was 5%, the Efficacy [1, 11] was 0% and the Efficacy [1, 12] was 0%. The Efficacy (Avena fatua (AVEFA); [12]) was 5%, the Efficacy (Avena fatua (AVEFA); [13]) was 0% and the Efficacy (Avena fatua (AVEFA); [15]) was 0%. It also gave an Efficacy (Bromus sterilis (BROST); [14]) of 0%, an Efficacy (Bromus sterilis (BROST); [13]) of 0% and an Efficacy (Bromus sterilis (BROST); [15]) of 0%. For the same molecule, the Efficacy [2, 15] was 15%, the Efficacy [3, 13] was 0% and the Efficacy [3, 15] was 0%.

`CCc1cc(C)cc(CC)c1-c1c(OC(=O)C(C)(C)C)n2n(c1=O)CCOCC2` [pinoxaden] was tested, and the Efficacy (Galium aparine (GALAP); [16]) was 0%, the Efficacy (Galium aparine (GALAP); [17]) was 0% and the Efficacy (Galium aparine (GALAP); [18]) was 0%. It also gave an Efficacy (Galium aparine (GALAP); [19]) of 0%, an Efficacy (Poa annua (POAAN); [20]) of 0% and an Efficacy (Poa annua (POAAN); [16]) of 0%. The Efficacy (Poa annua (POAAN); [17]) was 0%, the Efficacy (Poa annua (POAAN); [19]) was 0% and the Efficacy (Phalaris minor (PHAMI); [20]) was 10%. The Efficacy (Phalaris minor (PHAMI); [16]) was 50%, the Efficacy (Phalaris minor (PHAMI); [18]) was 10% and the Efficacy (Phalaris minor (PHAMI); [19]) was 20%. It also gave an Efficacy [1, 16] of 0%, an Efficacy (Avena fatua (AVEFA); [20]) of 0% and an Efficacy (Avena fatua (AVEFA); [16]) of 20%. The Efficacy (Bromus sterilis (BROST); [20]) was 0%, the Efficacy (Bromus sterilis (BROST); [16]) was 10% and the Efficacy [2, 16] was 85%. It also gave an Efficacy [2, 17] of 80%, an Efficacy [2, 18] of 30% and an Efficacy [3, 20] of 0%. It also gave an Efficacy [3, 16] of 0%, an Efficacy [3, 18] of 0% and an Efficacy [3, 19] of 0%.

Molecule `CS(=O)(=O)c1ccc(C(=O)C2C(=O)CCCC2=O)c(Cl)c1COCC(F)(F)F` [tembotrione] has an Efficacy [4] of 30%, an Efficacy (Setaria viridis (SETVI); 0.5 g of a.i./ha) of 0% and an Efficacy (Setaria viridis (SETVI); 2 g of a.i./ha) of 10%. For the same molecule, the Efficacy (Kochia scoparia (KCHSC); [9]) was 20%, the Efficacy (Kochia scoparia (KCHSC); [21]) was 0% and the Efficacy (Kochia scoparia (KCHSC); [22]) was 10%. For the same molecule, the pest or weed control at 0.5 g/ha (Eleusine indica (ELEIN); [23]) was 30%, the pest or weed control at 2 g/ha (Eleusine indica (ELEIN); [23]) was 40% and the pest or weed control at 0.5 g/ha (Eleusine indica (ELEIN); [24]) was 0%. It also gave a pest or weed control at 2 g/ha (Eleusine indica (ELEIN); [24]) of 10%, an Efficacy [5, 6] of 10% and an Efficacy [5, 21] of 10%. It also gave an Efficacy [5, 22] of 60%.
